ChEMBL document CHEMBL4118072, “2-Substituted-thio-N-(4-substituted-thiazol/1H-imidazol-2-yl)acetamides as BACE1 inhibitors: Synthesis, biological evaluation and docking studies” (Eur J Med Chem, 2017)

What was measured:
Beta-secretase 1 [1] = biological target: T1, Beta-secretase 1 (Homo sapiens, UniProt P56817); assay: Inhibition of BACE1 (unknown origin) using Rh-EVNLDAEFK-Quencher as substrate after 60 mins by FRET assay
[2] = Cytotoxicity against HEK293 cells assessed as decrease in cell viability after 72 hrs by CellTiter Glo luminescent assay; type: cell-based; conditions: human
Beta-secretase 1 [3] = biological target: T1, Beta-secretase 1; assay: Inhibition of BACE1 (unknown origin) at 10 uM using Rh-EVNLDAEFK-Quencher as substrate after 60 mins by FRET assay relative to control
in vitro = conditions: PAMPA
Description: Permeability of the compound at 25 ug/ml after 18 hrs by PAMPA

Beta-secretase 1 [4] = biological target: T1, Beta-secretase 1; assay: Inhibition of BACE1 (unknown origin) at 50 uM using Rh-EVNLDAEFK-Quencher as substrate after 60 mins by FRET assay relative to control
Beta-secretase 1 [5] = biological target: T1, Beta-secretase 1; assay: Binding affinity to BACE1 (unknown origin) by SPR method
Beta-secretase 1 [6] = biological target: T1, Beta-secretase 1; assay: Inhibition of BACE1 (unknown origin) at 1 uM using Rh-EVNLDAEFK-Quencher as substrate after 60 mins by FRET assay

T1 sequence (P56817 whole entry): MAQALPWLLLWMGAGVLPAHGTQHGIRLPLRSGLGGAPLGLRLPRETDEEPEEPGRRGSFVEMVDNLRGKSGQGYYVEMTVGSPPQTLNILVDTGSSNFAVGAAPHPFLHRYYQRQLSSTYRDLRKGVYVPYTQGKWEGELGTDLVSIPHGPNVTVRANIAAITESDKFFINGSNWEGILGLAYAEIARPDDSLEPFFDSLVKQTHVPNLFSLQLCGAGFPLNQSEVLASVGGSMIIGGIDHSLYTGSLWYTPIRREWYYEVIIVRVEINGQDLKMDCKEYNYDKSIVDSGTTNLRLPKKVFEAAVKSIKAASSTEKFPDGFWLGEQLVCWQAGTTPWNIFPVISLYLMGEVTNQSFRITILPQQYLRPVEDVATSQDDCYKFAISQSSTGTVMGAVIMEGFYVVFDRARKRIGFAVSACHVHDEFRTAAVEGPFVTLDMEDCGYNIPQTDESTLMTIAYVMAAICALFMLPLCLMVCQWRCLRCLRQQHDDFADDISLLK

Structure (SMILES) | IC50 (Beta-secretase 1 [1]) [µM] | inhibition (Beta-secretase 1 [3]) [%] | Papp at 18 h, 25 ug/ml (in vitro) [×10⁻⁶ cm/s] | inhibition (Beta-secretase 1 [4]) [%] | Kd (Beta-secretase 1 [5]) [µM] | inhibition (Beta-secretase 1 [6]) [%] | CC50 at 72 h [2] [µM]
CCOc1cccc(-c2nc(SCC(=O)Nc3nc(-c4cc(Cl)c(NC(C)=O)c(Cl)c4)cs3)[nH]c(=O)c2C#N)c1 |  | 2.5 |  | 4.7 |  |  | 
Clc1cccc(Cl)c1N=C1NCCN1 [CLONIDINE] |  |  | 5.9 |  |  |  | 
COc1cccc(-c2nc(SCC(=O)Nc3nc(-c4cccc(Br)c4)cs3)[nH]c(=O)c2C#N)c1 | 17.5 | 14.3 | 0.94 | 90.4 | 1.74 |  | > 50
CN[C@@H]1C[C@H]2O[C@@](C)([C@@H]1OC)n1c3ccccc3c3c4c(c5c6ccccc6n2c5c31)C(=O)NC4 [STAUROSPORINE] |  |  |  |  |  |  | 0.00354
COc1cccc(-c2nc(SCC(=O)Nc3nc(-c4cc(Cl)c(NC(C)=O)c(Cl)c4)cs3)[nH]c(=O)c2C#N)c1 |  | 0.3 |  | 1.4 |  |  | 
COc1cccc(-c2nc(SCC(=O)Nc3nc(-c4cc(Cl)c(N)c(Cl)c4)c[nH]3)[nH]c(=O)c2C#N)c1 | 3.2 | 87.7 | 0.34 |  | 0.169 | 26.4 | > 50

Second part, led by results:

IC50 (Beta-secretase 1 [1]) [µM] | inhibition (Beta-secretase 1 [3]) [%] | Papp at 18 h, 25 ug/ml (in vitro) [×10⁻⁶ cm/s] | inhibition (Beta-secretase 1 [4]) [%] | Kd (Beta-secretase 1 [5]) [µM] | inhibition (Beta-secretase 1 [6]) [%] | Structure (SMILES) | CC50 at 72 h [2] [µM]
13.5 | 24.5 | 0.07 | 79.9 |  |  | CCOc1cccc(-c2nc(SCC(=O)Nc3nc(-c4cc(Cl)c(N)c(Cl)c4)cs3)[nH]c(=O)c2C#N)c1 | > 50
13.4 | 13 | 0.88 | 86.1 | 1.33 |  | N#Cc1c(-c2cccc(C(F)(F)F)c2)nc(SCC(=O)Nc2nc(-c3cc(Cl)c(N)c(Cl)c3)cs2)[nH]c1=O | 47.7
7.7 | 58.9 | 0.11 | 91.8 | 0.861 |  | COc1cccc(-c2nc(SCC(=O)Nc3nc(-c4cc(Cl)c(N)c(Cl)c4)cs3)[nH]c(=O)c2C#N)c1 | > 50
 | 6.1 |  | 39.6 |  |  | N#Cc1c(-c2cccc(OC(F)(F)F)c2)nc(SCC(=O)Nc2nc(-c3cc(Cl)c(N)c(Cl)c3)cs2)[nH]c1=O | 
